Patent US8017620B2, “Dutpase inhibitors” (Medivir AB, priority 2004, dated 2011)
Where two headings read alike, the source gives them in different places.

Experiments:
[1] = target: T1, Plasmodium falciparum dUTPase (Plasmodium falciparum, UniProt Q8II92); experiment: Inhibition of Plasmodium falciparum dUTPase (malaria enzyme assay); format: biochemical
T1 construct: made in house; host or cells: E. coli BL21 (DE3)
T1 sequence (Q8II92 1-173): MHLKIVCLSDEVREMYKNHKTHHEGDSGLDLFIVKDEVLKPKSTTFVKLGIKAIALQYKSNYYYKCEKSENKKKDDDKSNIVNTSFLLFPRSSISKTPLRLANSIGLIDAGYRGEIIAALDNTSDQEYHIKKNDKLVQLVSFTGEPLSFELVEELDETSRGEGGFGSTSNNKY
Description: Inhibition of Plasmodium falciparum dUTPase
2′-dUTP, was purchased from Pharmacia. MgCl2, BSA, and the pH indicator cresol red were from Sigma. The buffer N,N-bis(2-hydroxyethyl)glycine (BICINE) was obtained from USB (United States Biochemical), Ohio. All the concentrations of nucleotides were calculated spectrophotometrically (HP-8453, Hewlett Packard) at 280 nm, using the extinction coefficient (ε280 nm=1.75 ml mg^−1cm^−1). Other chemicals used in these experiments were of the highest quality available.
Conserved motifs of the human dUTPase enzyme were used as query to identify the PFdut gene in the www.tigr.org database of the Plasmodium falciparum 3D7 strain. The entire coding sequence was amplified by the PCR using as template cDNA and as primers the oligonucleotides ATG-PFdut ([…]) and TGA-PFdut ([…]) which were designed so that NdeI and BamHI restriction sites were introduced at the 5′ and 3′ ends for convenient cloning in the expression vector pET11 (Stratagene). The amplified product was cloned into pGEMT (Promega) and propagated in E. coli XL1B cells. In order to confirm the correct sequence after amplification, sequencing was performed using an Applied Biosystems Automated Sequencer, at the Analytical Services of the Instituto de Parasitología y Biomedicina “López Neyra”. These Services also supplied the oligonucleotides designed for the sequencing
Recombinant P. falciparum dUTPase was purified from E. coli BL21 (DE3) cells transformed with pET-PFdut. Pellets from a liter of culture were resuspended in a solution consisting of buffer A (20 mM MES pH 5.5, 50 mM NaCl, 1 mM DTT) plus the protease inhibitors 1 mM PMSF, 20 μg/ml leupeptin and 1 mM benzamidine. Purification was carried out in a cold room (4° C.). The soluble crude extract was obtained by sonication in a Vibra-cell (Sonics and Materials Inc. Danbury, Conn., USA) and centrifugation at 14000×g. The extract was loaded onto a phosphocellulose column (Whatman) pre-equilibrated with buffer A at a flow rate of 1 ml/min. After washing the column with 100 ml of buffer A, elution was performed using a linear NaCl gradient of 50 to 1000 mM. Peak fractions with a low concentration of contaminating protein, as judged by 15% SDS-PAGE gels, were pooled and then loaded and chromatographed on a Superdex 200 column at a flow rate of 0.5 ml/min. The column was equilibrated with buffer B (50 mM Bicine, 1 mM DTT, 10 mM MgCl2). Peak fractions were pooled and concentrated to about 5 mg/ml by ultrafiltration in a Centripep tube (Amicon) and stored at −80° C.
Nucleotide hydrolysis was monitored by mixing enzyme and substrate with a rapid kinetic accessory (Hi-Tech Scientific) attached to a spectrophotometer (Cary 50) and connected to a computer for data acquisition and storage. Protons, released through the hydrolysis of nucleotides, were neutralised by a pH indicator in a weak buffered medium with similar pKa and monitored spectrophotometrically at the absorbance peak of the basic form of the indicator. Absorbance changes were kept within 0.1 units. The indicator/buffer pair used was cresol red/BICINE ([…], pH 8, 573 nm). The measurements were performed at 25° C., and the solutions were previously degassed. […] Indicator absorbance changes corresponding to complete hydrolysis of nucleotides were recorded in the computer, and the kinetic parameters Vmax and Kmapp (or slope) were calculated by fitting the data to the integrated Michaelis-Menten equation (Segel, 1975). […]

P. falciparum = experiment: Malaria whole cell assay (3H-hypoxanthine incorporation); format: cell-based; conditions: Plasmodium falciparum cell culture; read-out: ED50 (the source's name)
Description: Two strains of P. falciparum are used in this study: The drug sensitive NF54 (an airport strain of unknown origin) and K1 (Thailand, chloroquine and pyrimethamine resistant). The strains are maintained in RPMI-1640 medium with 0.36 mM hypoxanthine supplemented with 25 mM HEPES, 25 mM NaHC03, neomycin (100 U/ml) and Albumax^R (lipid-rich bovine serum albumin) (GIBCO, Grand Island, N.Y.) (5 g/l), together with 5% washed human A+ erythrocytes. All cultures and assays are conducted at 37° C. under an atmosphere of 4% C02, 3% 02 and 93% N2. Cultures are kept in incubation chambers filled with the gas mixture. Subcultures are diluted to a parasitaemia of 0.1-0.5% and the medium changed daily.
Antimalarial activity is assessed using an adaptation of the procedures described by Desjardins et al. (Antimicrob. Agents Chemother. 16(6):710-8, 1979), and Matile and Pink (In: Lefkovits, I. and Pernis, B. (Eds.). Immunological Methods. Academic Press, San Diego, pp. 221-234, 1990).
After use the stocks are kept at −20° C. The compound is further diluted to the appropriate concentration using complete medium without hypoxanthine.
Assays are performed in sterile 96-well microtiter plates, each well containing 200 μl of parasite culture (0.15% parasitemia, 2.5% hematocrit) with or without serial drug solutions. Seven 2-fold dilutions are used covering a range from 5 μg/ml 0.078 μg/ml.
After 48 hours of incubation at 37° C., 0.5 μCi ^3H-hypoxanthine is added to each well. Cultures are incubated for a further 24 h before they are harvested onto glass-fiber filters and washed with distilled water. The radioactivity is counted using a Betaplate™ liquid scintillation counter (Wallac, Zurich, Switzerland). […] From the sigmoidal inhibition curves IC50 values are calculated.
K1 strain is used. The compounds are tested at 7 concentrations (5000 to 78 ng/ml). Artemisinin and chloroquine are included as reference drugs.
A new range of concentrations is chosen depending on the IC50 determined (e.g. 100 to 1.56 ng/ml) and the assay is carried out 2× independently.
The standard drugs are chloroquine and artemisinin which are run in the same assay.

[2] = target: T2, Human recombinant dUTPase (Homo sapiens, UniProt P33316); experiment: Human dUTPase assay; format: biochemical; conditions: human enzyme versus Plasmodium falciparum enzyme
T2 construct: made in house; host or cells: E. coli BL21 (DE3)
T2 sequence (P33316 112-252 limits assumed): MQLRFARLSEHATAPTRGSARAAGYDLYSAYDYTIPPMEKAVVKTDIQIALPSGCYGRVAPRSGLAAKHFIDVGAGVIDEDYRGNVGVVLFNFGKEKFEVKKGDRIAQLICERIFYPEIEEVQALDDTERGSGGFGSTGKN
Description: Human recombinant dUTPase was purified from E. coli BL21 (DE3) cells transformed with pETHudut (Dr. P. O. Nyman, Lund University). Purification was accomplished as described for the dUTPase above except that the last step in Superdex 200 was omitted. Likewise, conditions for enzyme assays were the same as described above except that the enzyme concentration was 50 nM.

Leishmania dUTPase = Leishmania dUTPase (Leishmania major, UniProt O15826); conditions: Hidalgo-Zarco and González-Pacanowska 2001; cited from earlier work
Sequence of Leishmania dUTPase (O15826 entry or part of it): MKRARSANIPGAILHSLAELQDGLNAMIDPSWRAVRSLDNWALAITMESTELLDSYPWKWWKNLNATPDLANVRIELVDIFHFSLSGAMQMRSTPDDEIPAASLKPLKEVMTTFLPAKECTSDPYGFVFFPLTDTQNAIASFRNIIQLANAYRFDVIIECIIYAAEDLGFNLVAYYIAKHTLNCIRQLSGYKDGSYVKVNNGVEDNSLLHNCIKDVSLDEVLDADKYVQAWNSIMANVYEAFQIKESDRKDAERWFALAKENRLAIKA

[3] = Plasmodium falciparum enzyme, read-out: Ki

Row | SMILES | Ki [1, 3] | EC50 (P. falciparum) | SI (selectivity over the human enzyme) [2] | Ki [1] | inhibition of Leishmania dUTPase (Leishmania dUTPase)
1 | O=c1ccn(CCCCNC(c2ccccc2)(c2ccccc2)c2ccccc2)c(=O)[nH]1 | 900 nM | 3800 nM | 1111 | – | –
2 | O=c1ccn(CCCCCNC(c2ccccc2)(c2ccccc2)c2ccccc2)c(=O)[nH]1 | 4290 nM | 2200 nM | >233 | – | –
3 | O=c1ccn(COCCOC(c2ccccc2)(c2ccccc2)c2ccccc2)c(=O)[nH]1 | – | 900 nM | 25.3 | 670 nM | –
4 | O=c1ccn(CCCCOC(c2ccccc2)(c2ccccc2)c2ccccc2)c(=O)[nH]1 | – | 4900 nM | 617 | 1620 nM | –
5 | O=c1ccn(CCCCO[Si](c2ccccc2)(c2ccccc2)c2ccccc2)c(=O)[nH]1 | – | 430 nM | 226 | 1690 nM | –
6 | COc1ccc(C(OC[C@H]2O[C@@H](n3ccc(=O)[nH]c3=O)C[C@@H]2O)(c2ccccc2)c2ccc(OC)cc2)cc1 [5′-O-(4-4′-dimethoxytrityl)-2′-deoxyuridine] | – | – | – | – | no inhibition
7 | O=c1ccn([C@H]2C[C@H](O)[C@@H](COP(=O)(O)NP(=O)(O)OP(=O)(O)O)O2)c(=O)[nH]1 [α-β-imido-dUTP] | – | – | – | – | Competitive inhibition
